Test results taken from publication PMC9775191, “A Subset Screen of the Compounds Australia Scaffold Library Identifies 7-Acylaminodibenzoxazepinones as Potent and Selective Hits for Anti-Giardia Drug Discovery” (Biomedicines, 2022).

System: G. duodenalis BRIS/91/HEPU/1279
Experiment: Primary Giardia screen at 10 µM (live-cell imaging, automated counting)
Format: cell-based, Giardia duodenalis
Settings: 24 h
How it was run: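 One concentration, 10 μM, is screened per compound in singlicate under microaerophilic gas (3% O2, 5% CO2, N2). Inhibition comes from automated image-based counts at 24 and 48 h, relative to 0.2% DMSO controls.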

| SMILES | Average % Inhibition 24h |
| --- | --- |
| O=[N+]([O-])c1ccccc1Sc1nnnn1C1CCOCC1 [SN00782002] | 6.2% |

Same assay, conditions: 24 h, first singlicate assay

| SMILES | % Inhibition n=1 24h |
| --- | --- |
| O=[N+]([O-])c1ccccc1Sc1nnnn1C1CCOCC1 [SN00782002] | 12.3% |

Same assay, conditions: 24 h, re-assessment

| SMILES | % Inhibition n=2 24h |
| --- | --- |
| O=[N+]([O-])c1ccccc1Sc1nnnn1C1CCOCC1 [SN00782002] | 0.0% |

Same assay, conditions: 48 h

| SMILES | Average % Inhibition 48h |
| --- | --- |
| O=[N+]([O-])c1ccccc1Sc1nnnn1C1CCOCC1 [SN00782002] | 8.6% |

Same assay, conditions: 48 h, first singlicate assay

| SMILES | % Inhibition n=1 48h |
| --- | --- |
| O=C(CCNS(=O)(=O)c1cccnc1)N1CCCC(c2nc3ccccc3o2)C1 (stereo not drawn) [SN00780535] | 0.0% |
| O=C1OCCN1CCCN1CCCC(c2nc3ccccc3o2)C1 (stereo not drawn) [SN00780555] | 0.0% |
| CCOc1ccccc1OC1CCN(c2ncnc3nc[nH]c23)CC1 [SN00780570] | 31.1% |
| Cc1ccc(C)c(OC2CCN(c3ncnc4nc[nH]c34)CC2)c1 [SN00780571] | 12.5% |
| Cc1nc(CN2CCN(C(=O)c3c(C)c(C)n[nH]c3=O)CC2)cs1 [SN00780594] | 0.0% |
| C=CCc1ccc(OCC(O)CN2C(=O)NC(C)(c3ccccn3)C2=O)c(OC)c1 (stereo not drawn) [SN00780622] | 48.2% |
| COC(=O)c1c(C(=O)OC)c(-c2ccc(NS(=O)(=O)c3ccc(C)s3)cc2)n2c1CCC2 [SN00780656] | 9.3% |
| CC(C)(C)c1nc(CN2CCCN(C(=O)CCCNC(=O)NC3CCCCC3)CC2)no1 [SN00780682] | 11.6% |
| Cc1ccc(C)c(NC(=O)N2CCC(c3c[nH]c4ncccc34)CC2)c1 [SN00780701] | 0.0% |
| c1ccc(CCN2CCC(c3c[nH]c4ncccc34)CC2)nc1 [SN00780706] | 11.5% |
| CCCc1cc(N2CCOCC2)n2nc(C)c(-c3ccccc3)c2n1 [SN00780810] | 20.2% |
| O=C(C1CC=CCC1)N1CCN(S(=O)(=O)c2c[nH]c3ncccc23)CC1 (stereo not drawn) [SN00781077] | 7.5% |
| CCCCC(=O)N1CCN(S(=O)(=O)c2c[nH]c3ncccc23)CC1 [SN00781078] | 2.4% |
| O=C(Cc1ccccc1Cl)NCCc1noc(-c2ccccn2)n1 [SN00781138] | 21.7% |
| CNC(=O)Cc1noc(-c2cccc(-n3cccn3)n2)n1 [SN00781149] | 4.9% |
| O=S(=O)(Cc1ccc(C(F)(F)F)cc1)Cc1noc(C2CC2)n1 [SN00781153] | 0.0% |
| CN1CCN(CC2CCN(c3ccc([N+](=O)[O-])cc3Cl)CC2)CC1 [SN00781176] | 33.0% |
| N/C(=N/OCc1ncc(-c2cccs2)o1)c1ccc(Oc2ccc(F)cc2)nc1 [SN00781212] | 41.6% |
| O=C(Cc1csc(N2CCCNC2=O)n1)Nc1ccccc1OC(F)F [SN00781228] | 8.7% |
| COCCOCC(C)NC(=O)Cc1csc(N2CCCNC2=O)n1 (stereo not drawn) [SN00781237] | 11.2% |
| Nc1cc(C2CCNCC2)[nH]n1 [SN00781241] | 7.2% |
| C1CNCC2CCCN2C1 (stereo not drawn) [SN00781270] | 3.1% |

| SMILES | % Inhibition n=1 48h |
| --- | --- |
| Cc1ccccc1-c1noc(Cn2c(-c3ccccn3)noc2=O)n1 [SN00781291] | 0.0% |
| CCCc1noc(Cn2c(-c3ccc(OC)c(OC)c3)noc2=O)n1 [SN00781301] | 0.0% |
| O=C(NCC1CN2CCCC2CO1)c1ccccc1-n1cnnn1 (stereo not drawn) [SN00781319] | 0.0% |
| Cc1ccc([N+](=O)[O-])cc1NC(=O)N1CCC(n2cncn2)CC1 [SN00781334] | 0.0% |
| O=C(Cn1c(-c2ccccn2)noc1=O)N1CCc2sccc2C1 [SN00781376] | 0.0% |
| O=C(Cn1c(-c2ccccn2)noc1=O)C12CC3CC(CC(C3)C1)C2 [SN00781381] | 21.7% |
| O=C(Cn1c(-c2cccnc2)noc1=O)NCC1CCCO1 (stereo not drawn) [SN00781423] | 0.0% |
| CCn1c(Cn2c(-c3cccnc3)noc2=O)nc2c(F)cccc21 [SN00781429] | 0.0% |
| O=C(Cn1c(-c2ncccn2)noc1=O)N1CCCCC1 [SN00781438] | 1.7% |
| Cn1ncc2c1CCCC2NC(=O)N1CCCCC(N2CCCC2)C1 (stereo not drawn) [SN00781466] | 13.9% |
| Cc1csc(C2CCN(C(=O)c3ccccc3[N+](=O)[O-])CC2)n1 [SN00781474] | 8.2% |
| CCc1csc(C2CCCN(C(=O)c3ccc4c(c3)OCO4)C2)n1 (stereo not drawn) [SN00781524] | 0.0% |
| Cc1csc(C2CCCCN2)n1 (stereo not drawn) [SN00781548] | 6.1% |
| COCCN1CCN(c2nc(-c3ccncc3)nc3c2CCC3)CC1 [SN00781610] | 15.0% |
| COc1ccc(-n2ccn3c(CCC(=O)Nc4cc(C)cc(C)c4)nnc3c2=O)cc1 [SN00781639] | 16.2% |
| COCC(=O)Nc1ccc(NC(=O)c2cc3nc(C)ccc3o2)cc1 [SN00781689] | 14.1% |
| CN(C)C(=O)Cc1nc(CN2CCc3c(ncn3C)C2)cs1 [SN00781984] | 0.0% |
| Cn1cnc2c1CCN(Cc1csc(-c3ccco3)n1)C2 [SN00781992] | 24.5% |
| O=[N+]([O-])c1ccccc1Sc1nnnn1C1CCOCC1 [SN00782002] | 15.2% |
| NCC1CN(C2CC2)CCO1 (stereo not drawn) [SN00782004] | 23.7% |
| CCOc1cc(F)ccc1NC(=O)N1CCCC(N2CCCC2=O)C1 (stereo not drawn) [SN00782090] | 7.0% |

Same assay, conditions: 48 h, re-assessment

| SMILES | % Inhibition n=2 48h |
| --- | --- |
| O=[N+]([O-])c1ccccc1Sc1nnnn1C1CCOCC1 [SN00782002] | 2.0% |
